Results published in patent publication US20260191887A1, “METHODS OF TREATING INFLAMMATION” (THERAPEUTIKOS, INC., priority 2022, published 2026).

Key:
IL-6 [1] = test: IL-6 ELISA in LPS-activated RAW264.7 macrophages; type: cell-based, mouse; conditions: LPS 100 ng/mL, concentrations up to 5 mM, n=8
Description: (§1) Mouse RAW264.7 macrophage cell line (ATCC; Manassas, VA, USA) was maintained in DMEM culture medium containing 10% FBS and 1% antibiotic mix. For cell treatment, the test drugs at different doses were added to the culture 0.5 h prior to addition of 100 ng/mL LPS (Sigma-Aldrich Co., St Louis, MO, USA) and then cells were co-treated with LPS for 24 hours.
The amounts of IL-6 in culture medium from different treatments were measured by a commercial ELISA kit (Sigma-Aldrich), following the instructions provided by the manufacturer. Briefly, cells were seeded on a 96-well plate and various treatments were performed. The culture medium were collected and mixed with different assay reagents step by step. The resultant solutions were read at 450 nm on a microplate reader. There were eight repeats in each group (n=8). *P<0.05 vs LPS group. The experiment was duplicated.

mouse iNOS = test: Western blot of iNOS expression in LPS-activated RAW264.7 macrophages; type: cell-based; conditions: LPS 100 ng/mL; NDX1 0.1 and 1 mM, NDX2 and NAG 0.5 and 5 mM
Description: as §1
The cellular proteins were prepared from cells growing on a 6-well plate (approximately 500,000/well) using a commercial cell lysis buffer (Thermo Scientific). Then the protein concentration was determined using the Bradford protein assay kit (Bio-Rad, Hercules, CA, USA). The samples containing 100 μg proteins were run on 10% SDS-polyacrylamide gels at a […] and electro-transferred to nitrocellulose membranes (Thermo Scientific) at a constant voltage of 10 V overnight. […] Using the magic wand tool from the tool palette, the area of each band was selected, and the mean histogram were recorded and then charted. […]

IL-6 [2] = test: Serum IL-6 ELISA in LPS-induced systemic inflammation in mice; type: in vivo, mouse; conditions: LPS 10 mg/kg I.P., compound 300 mg/kg I.V.
Description: Male C57BL6/J mice (8 to 10-week-old, 20-25 g) purchased from Charles River were used in this study. Mice were kept in the animal facility of the School of Medicine, University of Virginia (UVa). All experimental procedures were approved by the Ethics Committee on Animal Research of Medical School, UVa and are in accordance with the Guidelines of the National Council for Animal Experimentation Control (CONCEA).
Moderate endotoxemia by LPS was induced with a single dose (10 mg/Kg, i.p.) of LPS (Escherichia coli 0111:B4, Sigma Chemical Co., St. Louis, MO, United States), 30 min after intravenous injection of NAG or NDX1 or NDX2 or the vehicle (saline). Two doses (200 mg/kg body weight and 300 mg/kg body weight) were tested for NAG, NDX1 and NDX2. Animals without any treatment were used to obtain the baseline data. Six hours after LPS treatment, inflammation assays were performed as described below. A total of 40 animals were randomly divided into 5 groups (8 mice/group): non-treatment (NT); 10 mg/Kg LPS plus saline (LPS); 10 mg/Kg LPS plus NAG (LPS+NAG); 10 mg/Kg LPS plus NDX1 (LPS+NDX1); and 10 mg/Kg LPS plus NDX2 (LPS+NDX2). The experiment was duplicated.
TNFa and IL-6 concentrations in the serum were determined using enzyme-linked immunosorbent assay (ELISA) according to the manufacturer's instructions. […] The resultant solutions were read at 450 nm on a microplate reader.

TNFα = TNFα ELISA in LPS-activated primary mouse peritoneal macrophages; type: cell-based; conditions: LPS 100 ng/mL; NDX1 and NDX2 0.01, 0.1, 1 mM; NAG 0.1 and 1 mM; n=8
Description: • 1. Non treatment (NT) • 2. LPS 100 ng/mL • 3. LPS 100 ng/mL+NDX1 dose1* • 4. LPS 100 ng/mL+NDX1 dose2* • 5. LPS 100 ng/mL+NDX1 dose3* • 6. LPS 100 ng/mL+NDX2 dose1 • 7. LPS 100 ng/mL+NDX2 dose2 • 8. LPS 100 ng/mL+NDX2 dose3 • 9. LPS 100 ng/mL+NAG dose2 • 10. LPS 100 ng/mL+NAG dose3 (*dose 1, 2, 3 were selected as low, middle and high dose with no cytotoxicity from the cytotoxic assay)
The peritoneal macrophages were isolated from peritoneal cavity, and cultured in Dulbecco's modified Eagle's medium (DMEM, Gibco BRL, Gaithersburg, MD) supplemented with 10% fetal bovine serum (FBS) (Hyclone Laboratories, Logan, VT) and 100 IU/mL penicillin G and 100 µg/mL streptomycin, in a humidified atmosphere of 5% carbon dioxide at 37° C. Cells will grow on a 96-well plate and co-treated with 100 ng/ml LPS (Sigma-Aldrich) 0.5 hours after addition of BNAGs and NAG. Twenty-four hours later, the cell number was counted by using the WST-1 kit (Fisher Scientific). After removal of the supernatant, […] new medium was added into each cell. […] Each sample was determined at 450 nm on a microplate reader.
The amounts of IL-6 and TNFα were measured by a commercial ELISA kit (Sigma-Aldrich), following the instructions provided by the manufacturer. […] The resultant solutions were read at 450 nm on a microplate reader.

CC(=O)N[C@H]1C(O)O[C@H](CO)[C@@H](O)[C@@H]1O (stereo partly shown) [NAG, N-acetyl glucosamine]
reduction of IL-6 production (ELISA) (IL-6 [1]): could significantly reduce IL-6 production | rank order for inhibition of iNOS expression (western blot) (mouse iNOS): NDX1>NDX2>NAG | decrease of serum level of IL-6 (IL-6 [2]): significantly decrease serum levels | reduction of TNFa production (ELISA) (TNFα): could significantly reduce IL-6 and TNFa production
